Results taken from US10028971B2, “Compositions and methods for treating psychiatric disorders” (GOSFORTH CENTRE (HOLDINGS) PTY LTD., priority 2008, dated 2018).
Like-named read-outs stand apart in the source and are kept apart here.

Assays:
[1] = test system: individuals with MCI or dementia; conditions: cited from earlier work; for effect in mild cognitive impairment (reports): individuals with MCI
[2] = test system: individuals with MCI or dementia; test: Mild cognitive impairment and dementia, clinical cases (Developmental Eye Movement test, Alzheimer's Quick Test); assay type: in vivo, human; conditions: person
Source text: A married person with a history of good cognitive functioning until last 4-5 yrs when noted by both their spouse and themself to becoming increasingly socially withdrawn primarily because of the difficulty in listening without distraction during social interaction, no known childhood or adult history of prior attentional or impulsive disorders. It has been clinically observed by the inventor that individuals treated with low dose antiepileptic were enhanced in their ability to discriminate irrelevant from the relevant sound was enhanced. […] On ceasing the medication there was an initial improvement again over the preceding 3 to 7 days followed by a loss of the therapeutic effects and returned to their pre-medication function. On the ressumption of the 12.5 mg phenytoin there was a return of the improved function. On this second occasion they were more aware of the benefits and also the gradual return of the detrimental clinic effects. During the clinical assessment it was noted that they had more flexibility in their conversation and more natural use of non-verbal cues, there was also enhancement of their egocentric gaze. […] These benefits were also noted by their spouse. […] Again these medications were ceased resulting in a loss of associated benefits. With each trial of medication they became more apparent to the patient and their spouse of the benefits of the therapy. They attempted whilst not taking the medication to communicate and follow the conversation in a way that they had been able to whilst on treatment. They found when attempting to do so they became mentally exhausted and unable to sustain the effort required for the interaction. The improvements noted clinically and also recorded using the Developmental Eye Movement test and a measure of parietal function the Alzheimer's Quick Test. Married person diagnosed with fronto-temporal dementia. they had been assessed by neuropsychologist, and geriatrician and psychiatrist to confirm this diagnosis. […] They then relied on others to make decisions for […]. They had gradually become socially disengaged finding such interactions distressing and demanding. […] Despite ongoing difficulties of word finding they were able to socially interact more spontaneously than they had done for many years. And have confidence in areas of conversation that they previously would have avoided. […] On two occasions the medication was withdrawn and then reintroduced, due to the experimental nature of treatment and concern that there might be a significant placebo effect. […] Following the subsequent reduction there was a return of the improvement previously noted.

[3] = test system: individuals with developmental dyspraxia / poor coordination; test: Treatment of developmental dyspraxia, clinical observation; assay type: in vivo, human; conditions: person, ADHD
Source text: Many of the individuals treated at this clinic, with a diagnosis of ADHD and/or pervasive development disorder such Asperger's Syndrome or autism also present with symptoms consistent with a diagnosis of a developmental coordination disorder. They are often described as ‘unco’ (unco-ordinated) by their peers and experience victimization, poor self-esteem and frustration as a consequence of their poor coordination. […] Individuals have described a sense of having more time to coordinate movements and to understand and integrate their own activity appropriately within a team sport such as soccer, which has previously eluded them. Individuals have felt frustration at being able to practise repeatedly an activity or skill only to be unable to put it into practice when required, within the play of a match. It is proposed that individuals were previously unable to process and plan their own coordination but remain aware of the general activity in which they were participating.

[4] = test system: mood stabilisation or epileptic symptoms or events; conditions: cited from earlier work; for Minimum Dose/day effective for mood stabilisation or treatment of epileptic symptoms or events: usual minimum anti-convulsant dose per day
[5] = test system: Parkinson's disease patient; test: Parkinson's disease clinical example with infrared eye tracking; assay type: in vivo, human; conditions: 12.5 mg phenytoin
Source text: Clinical example person with a ten-year history of Parkinson's disease. Moderate to severe motor symptoms with muscle rigidity, resting tremor, brady-[…] slowing of speech. No evidence of dementia or depression. […] An enhanced initiation of movement. Also described an improved perception of efficiency in thought and action. No evidence of loss of efficacy of medication. Using infrared eye tracking technology it was noted that the fixations and […] movements were enhanced after treatment. Measurements were undertaken both whilst silent and speaking with and without eye contact with the investigator. Based on these investigations in Parkinson's disease and also in mild cognitive impairment and dementia we consider that condition is described as Parkinson plus diseases, including multiple system atrophy (MSA), progressive supranuclear palsy (PSP), corticobasal degeneration (CBD), and dementia with Lewy bodies (DLB)s may also benefit from the addition of a low dose AED with and without a psychostimulant.

adults with ADHD = conditions: for group outcome of combination therapy: adults with ADHD
Protocol: In the clinical setting a number of adults with ADHD experienced a combination therapy of stimulant medication (dexamphetamine) in combination with sodium valproate (VPA). The initial dosages used were from 15 to 70 mg/day of dexamphetamine and from 100 to 700 mg/day of VPA (Epilim) (=approximately 2 to 10 mg/kg/day).
The determination of the dose for the dexamphetamine was undertaken in a clinical sensitive open label manner. The dose was titrated upwards dependent on the clinical response and the freedom from side-effects. The dose range was between 15 and 70 mg a day. The frequency of the dosing also varied dependent upon the clinical response. The usual dose interval was between two to four hours. This dosing adjustment took place prior to the commencement of the sodium valproate. The sodium valproate medication was initiated once a day at 50 mg tablet or elixir and titrated upwards dependent on response, but not more than one increase every three days. The dose was given as a once or twice a day regime. During the titration phase, if clinically possible, no other adjustments to the pharmacotherapy were undertaken.

[6] = test system: adherence to medication regime; conditions: person, anxiety and depression, no ADHD; 25 mg phenytoin
Source text: As a result, taking medication becomes an automatic activity which doesn't require a high level of attention and motivation.
The individual experiences an improvement in the ability to efficiently and effectively attend to a task in hand, without also needing to expend extra cognitive effort to remember which medication to take and at what times.

[7] = test system: patients with an eating disorder and ADHD; test: Treatment of eating disorders, clinical observation; conditions: person
Source text: The use of sodium valproate at low dose levels can then be titrated to a level that does effectively control these thoughts. This may or may not be at the therapeutic dose used in the treatment of bipolar disorder.

[8] = test system: individual not meeting the full criteria for ADHD; test: Subthreshold ADHD, clinical case (Example 21); assay type: in vivo, human; conditions: person; topiramate 12.5 mg daily added to dexamphetamine 2.5 mg daily
[9] = test system: patients with substance addiction; test: Treatment of addictions, clinical observation; assay type: in vivo, human; conditions: person; dexamphetamine alone over 6 months
Source text: Addiction to amphetamines poses a number of unique challenges.

[10] = test system: patients with substance addiction; conditions: psychostimulants alone; cited from earlier work
[11] = in vivo; cited from earlier work
[12] = test system: patients with an eating disorder and ADHD; conditions: double-blind studies; effects thought only short-lived; cited from earlier work
[13] = fronto-temporal dementia, 25 mg phenytoin

**Q.** What does the source list for `COc1cc2c(cc1OC)C(=O)C(CC1CCN(Cc3ccccc3)CC1)C2` (stereo not shown) [Donepezil]?
**A.** side effects in MCI (reports) ([1]; human, in vivo): significant side effects; effect in mild cognitive impairment (reports) [1]: only minor, short-term benefits

**Q.** For `O=C1NC(=O)C(c2ccccc2)(c2ccccc2)N1` [Phenytoin], which “clinical outcome (case)” value [2, 13] is on record?
**A.** remarkable improvement in their cognitive functioning

**Q.** And the “rapid automatic naming and Alzheimer's Quick Test (AQT)” value [2, 13]?
**A.** significant improvement in their functioning

**Q.** What about the “clinical outcome (case)” value ([2]; social withdrawal, phenytoin 12.5 mg daily) of the same compound?
**A.** able to socially interact in a more meaningful way

**Q.** What about the “clinical outcome (case)” value ([2]; phenytoin 10 mg added to low dose sodium valproate) of the same compound?
**A.** more robust improvement on either medication alone

**Q.** And the “clinical outcome (case)” value ([2]; phenytoin 50 mg for two weeks)?
**A.** loss of the therapeutic benefit and general impairment

**Q.** What about the “clinical outcome (case)” value ([2]; phenytoin increased to 25 mg, over 6 to 8 weeks) of the same compound?
**A.** loss of the benefits

**Q.** And the “clinical outcome (case)” value ([3]; phenytoin 25 mg added to dexamphetamine 25 mg, atomexetine 60 mg, sodium valproate 150 mg)?
**A.** improvement in coordination

**Q.** And the “Minimum Dose/day effective for mood stabilisation or treatment of epileptic symptoms or events” value [4]?
**A.** 200 mg

**Q.** And the “fixations and saccadic eye movements after treatment” value ([5]; infrared eye tracking)?
**A.** enhanced

**Q.** What about the “clinical outcome (case)” value ([5]; person, ten-year Parkinson's disease) of the same compound?
**A.** improved verbal fluency, enhanced and less effortful social connection and eye contact

**Q.** And the “time to noted improvement” value ([5]; person)?
**A.** 2 to 3 days

**Q.** What about the “course of benefit on continued dosing” value (adults with ADHD; 50 mg phenytoin dose with dexamphetamine, many clinical situations) of the same compound?
**A.** loss of benefit of the therapy over the proceeding weeks and months

**Q.** What about the “clinical outcome (case)” value (adults with ADHD; adult female, phenytoin 50 mg added to sodium valproate 100 mg and methylphenidate) of the same compound?
**A.** Pervasive and robust psychosocial improvement

**Q.** And the “group outcome of combination therapy” value (adults with ADHD; Methylphenidate 40 mg/d, Valproate 100 mg/d, Phenytoin 50 mg/d)?
**A.** successfully treated

**Q.** What about the “group outcome of combination therapy” value (adults with ADHD; dexamphetamine 20-45 mg/d, Valproate 100-400 mg/d, Phenytoin 12.5-50 mg/d) of the same compound?
**A.** successfully treated

**Q.** What about the “group outcome of combination therapy” value (adults with ADHD; dexamphetamine 20-75 mg/d with Phenytoin 1-75 mg/d) of the same compound?
**A.** successfully treated

**Q.** And the “group outcome of combination therapy” value (adults with ADHD; methylphenidate 15-105 mg/d with Phenytoin 25-50 mg/d)?
**A.** successfully treated

**Q.** What about the “clinical outcome (case)” value (adults with ADHD; person, ADHD, phenytoin 30 mg added to dexamphetamine) of the same compound?
**A.** improvement in ability to read and sustain enjoyable conversation

**Q.** And the “clinical outcome (case)” value (adults with ADHD; person, 12.5 mg phenytoin added to sodium valproate 100 mg and dexamphetamine)?
**A.** Significant improvement in ability to maintain egocentric eye gaze and cognition

**Q.** What about the “clinical outcome (case)” value (adults with ADHD; person, 50 mg phenytoin added to methylphenidate 120 mg per day) of the same compound?
**A.** improved cognition with increased confidence in interpersonal relationships

**Q.** What about the “clinical outcome (case)” value (adults with ADHD; person, phenytoin 20 mg per day added to sodium valproate and dexamphetamine) of the same compound?
**A.** further improvement of the sequencing and organisation of thoughts

**Q.** And the “clinical outcome (case)” value (adults with ADHD; person, phenytoin 50 mg later 25 mg added to dexamphetamine and sodium valproate 200 mg)?
**A.** immediate improvement of stability of affect and clarity of thinking

**Q.** And the “clinical outcome (case)” value [6]?
**A.** improved self organisation and ability to plan ahead without effort

**Q.** For `CCN(C)C(=O)Oc1cccc([C@H](C)N(C)C)c1` [Rivastigmine], which “effect in mild cognitive impairment (reports)” value [1] is on record?
**A.** failed to stop or slow progression to Alzheimer's disease or improve cognitive function

**Q.** For `CC1(C)O[C@@H]2[C@@H](CO[C@@]3(COS(N)(=O)=O)OC(C)(C)O[C@@H]23)O1` [Topiramate, 2,3:4,5-Bis-O-(1-methylethylidene)-beta-D-fructopyranose sulfamate], which “clinical outcome (case)” value ([7]; 25 mg topiramate added to 45 mg extended release methylphenidate) is on record?
**A.** improved organisation, enhanced interpersonal functioning, improved cognition and able to sustain egocentric eye gaze

**Q.** And the “target dose for controlling epileptic seizures” value ([4]; in vivo)?
**A.** 100 to 500 mg/day

**Q.** And the “Minimum Dose/day effective for mood stabilisation or treatment of epileptic symptoms or events” value [4]?
**A.** 100 mg

**Q.** And the “group outcome of combination therapy” value (adults with ADHD; dexamphetamine 30-80 mg/d with Topiramate 12.5-50 mg/d)?
**A.** successfully treated

**Q.** What about the “group outcome of combination therapy” value (adults with ADHD; median 40 mg/d Dexamphetamine, 120 mg/d Sodium Valproate, 25 mg/d Topiramate) of the same compound?
**A.** successfully treated

**Q.** And the “group outcome of combination therapy” value (adults with ADHD; methylphenidate 40-55 mg/d with Topiramate 12-37.5 mg/d)?
**A.** successfully treated

**Q.** And the “clinical outcome (case)” value (adults with ADHD; person, ADHD, 25 mg topiramate added to dexamphetamine 30 mg)?
**A.** ability to complete tasks, improvement in cognition

**Q.** What about the “clinical outcome (case)” value (adults with ADHD; person, 25 mg topiramate added to oros extended release methylphenidate) of the same compound?
**A.** improved organisation, cognition, enhanced interpersonal functioning, and ability to sustain egocentric eye gaze

**Q.** And the “clinical outcome (case)” value (adults with ADHD; person, topiramate 25 mg added to sodium valproate 300 mg and dexamphetamine 20 mg)?
**A.** Further improvements in interpersonal professional functioning

**Q.** And the “clinical outcome (case)” value [8]?
**A.** significant improvement

**Q.** Which results are given for `C[C@H](N)Cc1ccccc1` [dexamphetamine]?
**A.** stability and functional benefit (case) [9]: not noted; use alone in treatment of amphetamine and cocaine addiction [10]: unhelpful

**Q.** Which results are given for `COC(=O)C(c1ccccc1)C1CCCCN1` (stereo not shown) [methylphenidate]?
**A.** clinical outcome (case) ([7]; anorexia nervosa, ADHD, methylphenidate, 45 mg extended release): inconsistent; clinical outcome (case) ([3]; autism, developmental dyspraxia, methylphenidate max 95 mg daily): Limited improvement with poor compliance; clinical outcome (case) (adults with ADHD; adult female, ADHD, anorexia nervosa bulimic subtype, methylphenidate alone): reasonable improvement; clinical outcome (case) (adults with ADHD; person 120 kg, ADHD, methylphenidate 120 mg per day alone): Remain disorganized and inconsistent with taking medication; clinical outcome (case) (adults with ADHD; person, ADHD, methylphenidate 55 mg): improvement in their symptoms of impaired attention and concentration; clinical outcome (case) (adults with ADHD; person, anorexia nervosa, ADHD, methylphenidate alone): inconsistent; duration of action [11]: 2 to 4 h; effect on bulimic symptoms [12]: suppression of bulimic symptoms
